Where two headings read alike, the source gives them in different places.
How the values were obtained:
various enzymes [1] = molecular target: various enzymes (Homo sapiens, UniProt P08581); settings: MET; 1 uM
Description: (§1) Ambit profiling from Eurofins (formerly Discoverx) was conducted in accordance with the manufacturer's instructions.

various enzymes [2] = molecular target: T1, various enzymes (Homo sapiens, UniProt Q13043); settings: MST1; 1 uM
T1 sequence (Q13043 1-487): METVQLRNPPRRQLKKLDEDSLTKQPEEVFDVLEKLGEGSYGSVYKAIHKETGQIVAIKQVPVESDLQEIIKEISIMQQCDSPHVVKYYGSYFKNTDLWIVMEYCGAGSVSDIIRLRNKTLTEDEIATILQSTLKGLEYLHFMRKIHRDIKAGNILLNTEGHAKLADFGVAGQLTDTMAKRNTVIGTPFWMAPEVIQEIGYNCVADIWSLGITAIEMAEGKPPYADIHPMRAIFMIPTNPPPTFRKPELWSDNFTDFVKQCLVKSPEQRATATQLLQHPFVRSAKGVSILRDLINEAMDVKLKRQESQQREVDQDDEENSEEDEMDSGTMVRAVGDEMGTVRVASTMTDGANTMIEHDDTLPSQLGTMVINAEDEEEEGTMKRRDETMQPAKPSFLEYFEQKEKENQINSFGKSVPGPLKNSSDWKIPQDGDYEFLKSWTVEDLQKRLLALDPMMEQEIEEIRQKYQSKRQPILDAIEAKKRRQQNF
Description: as §1

various enzymes [3] = molecular target: various enzymes (Homo sapiens, UniProt P41240); settings: CSK; 1 uM
Sequence of various enzymes (Homo sapiens, UniProt P41240) (P41240 whole entry): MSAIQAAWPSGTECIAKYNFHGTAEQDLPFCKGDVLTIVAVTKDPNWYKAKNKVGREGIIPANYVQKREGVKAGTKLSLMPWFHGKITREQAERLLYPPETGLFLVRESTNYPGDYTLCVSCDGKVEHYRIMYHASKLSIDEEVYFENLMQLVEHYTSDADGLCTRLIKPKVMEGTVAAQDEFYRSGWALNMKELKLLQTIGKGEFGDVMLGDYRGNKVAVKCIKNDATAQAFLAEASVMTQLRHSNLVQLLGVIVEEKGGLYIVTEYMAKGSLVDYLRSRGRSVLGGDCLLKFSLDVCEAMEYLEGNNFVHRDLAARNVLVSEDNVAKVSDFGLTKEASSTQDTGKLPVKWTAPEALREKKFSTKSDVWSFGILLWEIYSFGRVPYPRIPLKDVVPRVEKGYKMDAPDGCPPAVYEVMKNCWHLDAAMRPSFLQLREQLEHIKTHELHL
Description: as §1

various enzymes [4] = molecular target: T2, various enzymes (Homo sapiens, UniProt Q8IVH8); settings: MAP4K3; 1 uM
T2 sequence (Q8IVH8 1-894): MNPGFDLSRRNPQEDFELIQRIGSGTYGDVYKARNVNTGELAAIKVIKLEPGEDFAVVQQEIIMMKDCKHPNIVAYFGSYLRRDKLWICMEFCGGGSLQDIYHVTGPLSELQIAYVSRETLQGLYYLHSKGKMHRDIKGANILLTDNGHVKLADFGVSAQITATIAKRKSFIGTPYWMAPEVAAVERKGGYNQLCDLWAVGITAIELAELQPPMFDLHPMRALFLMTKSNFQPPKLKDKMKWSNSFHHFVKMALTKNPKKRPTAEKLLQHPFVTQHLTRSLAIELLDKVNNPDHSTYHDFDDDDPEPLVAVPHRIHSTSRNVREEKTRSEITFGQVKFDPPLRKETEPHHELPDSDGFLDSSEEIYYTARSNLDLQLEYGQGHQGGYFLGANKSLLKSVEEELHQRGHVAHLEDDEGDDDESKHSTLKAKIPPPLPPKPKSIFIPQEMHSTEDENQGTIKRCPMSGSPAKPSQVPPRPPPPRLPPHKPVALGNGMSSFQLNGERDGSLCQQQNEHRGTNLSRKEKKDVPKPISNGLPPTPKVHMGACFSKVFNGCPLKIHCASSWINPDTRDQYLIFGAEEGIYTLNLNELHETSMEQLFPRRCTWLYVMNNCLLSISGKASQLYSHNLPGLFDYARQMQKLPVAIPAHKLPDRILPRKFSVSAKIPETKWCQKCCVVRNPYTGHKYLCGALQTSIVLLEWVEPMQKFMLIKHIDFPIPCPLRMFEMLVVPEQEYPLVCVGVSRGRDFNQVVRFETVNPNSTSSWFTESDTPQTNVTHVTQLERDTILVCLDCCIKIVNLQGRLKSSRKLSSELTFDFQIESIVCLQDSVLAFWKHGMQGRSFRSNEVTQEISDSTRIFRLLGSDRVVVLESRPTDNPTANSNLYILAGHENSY
Description: as §1

various enzymes [5] = molecular target: various enzymes (Homo sapiens, UniProt P00533); settings: EGFR; 1 uM
Description: as §1

various enzymes [6] = molecular target: various enzymes (Homo sapiens, UniProt P00533, L858R/T790M)
Description: as §1

various enzymes [7] = molecular target: T3, various enzymes (Homo sapiens, UniProt P36888); settings: FLT3(ITD); 1 uM
T3 sequence (P36888 1-993): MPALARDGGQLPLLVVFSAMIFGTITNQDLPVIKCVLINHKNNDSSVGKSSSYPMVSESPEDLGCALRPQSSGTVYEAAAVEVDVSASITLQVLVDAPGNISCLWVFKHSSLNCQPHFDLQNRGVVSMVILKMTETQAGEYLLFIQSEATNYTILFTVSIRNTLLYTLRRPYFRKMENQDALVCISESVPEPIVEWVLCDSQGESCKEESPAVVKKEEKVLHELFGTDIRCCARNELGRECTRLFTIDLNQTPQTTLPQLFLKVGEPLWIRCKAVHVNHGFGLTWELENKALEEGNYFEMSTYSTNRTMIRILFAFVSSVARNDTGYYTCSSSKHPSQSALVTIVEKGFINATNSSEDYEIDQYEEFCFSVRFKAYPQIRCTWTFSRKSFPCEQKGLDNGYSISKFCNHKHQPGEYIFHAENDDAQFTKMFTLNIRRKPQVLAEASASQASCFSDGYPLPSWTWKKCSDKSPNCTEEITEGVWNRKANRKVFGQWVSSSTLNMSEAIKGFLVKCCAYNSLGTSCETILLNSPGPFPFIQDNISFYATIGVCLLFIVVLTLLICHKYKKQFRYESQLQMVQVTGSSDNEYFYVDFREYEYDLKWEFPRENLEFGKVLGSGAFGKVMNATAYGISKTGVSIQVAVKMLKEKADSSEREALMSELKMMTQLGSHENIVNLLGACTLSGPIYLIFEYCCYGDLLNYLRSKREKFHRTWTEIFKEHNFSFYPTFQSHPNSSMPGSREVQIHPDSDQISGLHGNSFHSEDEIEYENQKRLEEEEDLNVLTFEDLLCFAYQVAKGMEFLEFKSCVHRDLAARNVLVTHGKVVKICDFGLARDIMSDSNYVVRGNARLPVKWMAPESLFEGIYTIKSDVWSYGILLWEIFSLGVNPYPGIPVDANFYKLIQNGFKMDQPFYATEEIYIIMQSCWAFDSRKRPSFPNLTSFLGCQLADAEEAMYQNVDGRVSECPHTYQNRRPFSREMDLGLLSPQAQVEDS
Description: as §1

various enzymes [8] = molecular target: various enzymes (Homo sapiens, UniProt O60331); settings: PIP5K1C; 1 uM
Sequence of various enzymes (Homo sapiens, UniProt O60331) (O60331 whole entry): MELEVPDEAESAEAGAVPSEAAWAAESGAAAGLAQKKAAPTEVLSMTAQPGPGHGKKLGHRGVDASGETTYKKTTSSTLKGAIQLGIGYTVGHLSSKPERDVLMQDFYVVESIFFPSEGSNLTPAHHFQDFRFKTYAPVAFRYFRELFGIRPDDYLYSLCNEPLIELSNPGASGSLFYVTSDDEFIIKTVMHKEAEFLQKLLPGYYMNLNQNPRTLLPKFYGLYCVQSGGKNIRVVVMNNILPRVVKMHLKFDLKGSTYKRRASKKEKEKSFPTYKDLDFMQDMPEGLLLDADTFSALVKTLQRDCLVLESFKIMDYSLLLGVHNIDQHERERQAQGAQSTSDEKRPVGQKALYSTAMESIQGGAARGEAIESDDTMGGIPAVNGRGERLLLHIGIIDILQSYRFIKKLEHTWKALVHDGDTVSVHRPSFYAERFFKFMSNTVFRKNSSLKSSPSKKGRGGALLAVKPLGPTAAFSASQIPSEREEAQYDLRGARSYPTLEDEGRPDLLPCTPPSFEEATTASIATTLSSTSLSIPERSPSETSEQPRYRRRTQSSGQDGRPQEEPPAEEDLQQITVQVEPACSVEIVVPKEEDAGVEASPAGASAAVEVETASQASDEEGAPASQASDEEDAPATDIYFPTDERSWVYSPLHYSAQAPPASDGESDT
Description: as §1

various enzymes [9] = molecular target: various enzymes (Homo sapiens, UniProt Q9Y2K2); settings: QSK; 1 uM
Sequence of various enzymes (Homo sapiens, UniProt Q9Y2K2) (Q9Y2K2 whole entry): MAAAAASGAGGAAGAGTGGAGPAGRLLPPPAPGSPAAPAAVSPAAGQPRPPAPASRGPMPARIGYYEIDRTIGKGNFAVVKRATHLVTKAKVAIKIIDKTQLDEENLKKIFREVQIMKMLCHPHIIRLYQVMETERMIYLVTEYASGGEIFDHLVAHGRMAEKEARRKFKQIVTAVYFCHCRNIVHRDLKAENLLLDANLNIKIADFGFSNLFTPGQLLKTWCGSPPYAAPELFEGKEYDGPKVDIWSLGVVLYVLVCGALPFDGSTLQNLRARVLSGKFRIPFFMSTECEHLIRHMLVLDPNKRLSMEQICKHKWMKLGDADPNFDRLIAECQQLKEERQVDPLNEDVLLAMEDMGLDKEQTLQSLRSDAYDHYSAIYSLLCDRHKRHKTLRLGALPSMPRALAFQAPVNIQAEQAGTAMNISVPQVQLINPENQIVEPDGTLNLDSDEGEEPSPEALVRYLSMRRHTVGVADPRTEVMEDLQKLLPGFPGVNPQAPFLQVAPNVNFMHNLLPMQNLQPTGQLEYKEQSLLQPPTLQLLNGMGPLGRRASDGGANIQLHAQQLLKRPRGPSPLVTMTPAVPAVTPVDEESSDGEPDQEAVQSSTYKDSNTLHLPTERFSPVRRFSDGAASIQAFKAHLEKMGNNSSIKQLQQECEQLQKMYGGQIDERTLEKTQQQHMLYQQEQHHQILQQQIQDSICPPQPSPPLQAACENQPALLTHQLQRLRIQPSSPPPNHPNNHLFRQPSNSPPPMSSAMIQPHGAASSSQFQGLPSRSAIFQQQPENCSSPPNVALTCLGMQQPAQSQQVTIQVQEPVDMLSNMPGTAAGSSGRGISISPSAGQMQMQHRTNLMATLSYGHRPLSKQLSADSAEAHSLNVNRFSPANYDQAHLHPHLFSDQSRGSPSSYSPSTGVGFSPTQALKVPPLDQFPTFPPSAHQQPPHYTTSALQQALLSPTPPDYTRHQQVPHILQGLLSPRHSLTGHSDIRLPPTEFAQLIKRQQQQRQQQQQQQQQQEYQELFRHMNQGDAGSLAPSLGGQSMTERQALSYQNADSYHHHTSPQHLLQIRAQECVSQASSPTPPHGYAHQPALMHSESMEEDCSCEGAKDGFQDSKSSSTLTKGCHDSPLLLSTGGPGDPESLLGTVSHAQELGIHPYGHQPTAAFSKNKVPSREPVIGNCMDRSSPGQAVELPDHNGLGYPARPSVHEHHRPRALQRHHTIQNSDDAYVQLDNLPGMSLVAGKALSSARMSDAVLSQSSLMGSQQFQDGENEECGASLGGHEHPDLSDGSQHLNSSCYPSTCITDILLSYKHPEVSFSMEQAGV
Description: as §1

various enzymes [10] = molecular target: various enzymes (Homo sapiens, UniProt P00533, T790M)
Description: as §1

various enzymes [11] = molecular target: various enzymes (Homo sapiens, UniProt P00533, DELINS747-751S); settings: EGFR(L747-T751del, Sins); 1 uM
Description: as §1

Sequence of various enzymes (Homo sapiens, UniProt P08581) (P08581 25-1390): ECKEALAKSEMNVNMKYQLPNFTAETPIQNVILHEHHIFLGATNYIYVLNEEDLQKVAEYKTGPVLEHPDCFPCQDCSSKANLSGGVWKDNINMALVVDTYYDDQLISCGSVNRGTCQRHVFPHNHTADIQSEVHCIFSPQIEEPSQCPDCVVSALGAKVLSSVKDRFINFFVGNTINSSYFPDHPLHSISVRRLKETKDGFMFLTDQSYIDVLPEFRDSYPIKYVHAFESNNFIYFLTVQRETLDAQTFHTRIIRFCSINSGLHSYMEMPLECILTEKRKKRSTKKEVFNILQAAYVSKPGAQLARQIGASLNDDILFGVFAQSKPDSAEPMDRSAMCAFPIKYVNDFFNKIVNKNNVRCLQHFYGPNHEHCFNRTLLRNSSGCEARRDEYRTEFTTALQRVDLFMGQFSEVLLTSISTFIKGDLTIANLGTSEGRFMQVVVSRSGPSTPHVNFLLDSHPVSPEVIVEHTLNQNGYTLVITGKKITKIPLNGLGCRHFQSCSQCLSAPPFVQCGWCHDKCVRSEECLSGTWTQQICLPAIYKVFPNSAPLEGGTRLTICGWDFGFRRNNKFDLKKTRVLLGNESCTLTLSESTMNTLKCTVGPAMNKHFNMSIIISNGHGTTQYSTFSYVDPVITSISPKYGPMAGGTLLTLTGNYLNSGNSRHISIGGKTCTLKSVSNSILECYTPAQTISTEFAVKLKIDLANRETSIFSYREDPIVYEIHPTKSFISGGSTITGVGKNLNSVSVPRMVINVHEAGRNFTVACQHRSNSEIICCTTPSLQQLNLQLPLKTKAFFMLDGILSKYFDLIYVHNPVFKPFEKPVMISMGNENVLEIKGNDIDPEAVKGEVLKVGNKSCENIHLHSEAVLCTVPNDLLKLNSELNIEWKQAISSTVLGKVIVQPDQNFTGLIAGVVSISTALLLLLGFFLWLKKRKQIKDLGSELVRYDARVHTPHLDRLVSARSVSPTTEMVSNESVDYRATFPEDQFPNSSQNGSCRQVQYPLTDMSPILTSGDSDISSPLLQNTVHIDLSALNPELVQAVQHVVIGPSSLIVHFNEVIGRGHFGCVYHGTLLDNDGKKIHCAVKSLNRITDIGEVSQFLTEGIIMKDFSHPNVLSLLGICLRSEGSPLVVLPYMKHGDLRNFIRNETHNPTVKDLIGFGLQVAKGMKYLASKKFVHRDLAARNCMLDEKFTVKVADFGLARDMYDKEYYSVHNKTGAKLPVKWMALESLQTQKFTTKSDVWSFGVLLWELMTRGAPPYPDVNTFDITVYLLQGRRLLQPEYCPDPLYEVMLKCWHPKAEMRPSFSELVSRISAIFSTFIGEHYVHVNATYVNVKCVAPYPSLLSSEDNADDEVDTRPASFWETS

Row | SMILES | Ambit profiling (various enzymes [1]) | Ambit profiling (various enzymes [2]) | Ambit profiling (various enzymes [3]) | Ambit profiling (various enzymes [4]) | Ambit profiling (various enzymes [5]) | Ambit profiling (various enzymes [6]) | Ambit profiling (various enzymes [7]) | Ambit profiling (various enzymes [8]) | Ambit profiling (various enzymes [9]) | Ambit profiling (various enzymes [10]) | Ambit profiling (various enzymes [11]) | Ambit profiling (various enzymes [6]; EGFR(L858R, T790M), 1 uM) | Ambit profiling (various enzymes [10]; EGFR(T790M), 1 uM)
1 | CN1Cc2nn(C)c(C#N)c2-c2cnc3[nH]cc(c3c2)-c2cn(nc2C(F)(F)F)CCCC1=O [Compound 48, (Z)-31,5-dimethyl-6-oxo-13-(trifluoromethyl)-11H,21H,31H-5-aza-2(3,5)-pyrrolo[2,3-b]pyridina-1(4,1),3(4,3)-dipyrazolacyclononaphane-35-carbonitrile] | 48 | 100 | 95 | 77 | 76 | 50 | 21 | 38 | 100 | 80 | 50 | – | –
2 | CN1Cc2nn(C)cc2-c2cnc3[nH]cc(c3c2)-c2cnn(c2)CCCC1=O [Compound 41, (Z)-31,5-dimethyl-11H,21H,31H-5-aza-2(3,5)-pyrrolo[2,3-b]pyridina-1(4,1),3(4,3)-dipyrazolacyclononaphan-6-one] | 30 | 4.7 | 63 | 7.8 | 86 | – | 0.15 | 20 | 89 | – | 100 | 14 | 41
